In PMC8286840, “Identifying SARS-CoV-2 antiviral compounds by screening for small molecule inhibitors of Nsp3 papain-like protease” (Biochemical Journal, 2021):
Structures can show the parent of a compound that is named as a salt. Where two headings read alike, the source gives them in different places.

Key:
[1] = target: T1, SARS-CoV-2 PLpro (nsp3 1564–1878) (Severe acute respiratory syndrome coronavirus 2, UniProt P0DTD1); assay: biochemical; design: FRET-quenched peptide (Pro3) cleavage by PLpro, 10 min pre-incubation, slope over 20 min, normalised to no-compound control; conditions: low concentration screen, read-out: % of control remaining
[2] = target: T1, SARS-CoV-2 PLpro (nsp3 1564–1878); assay: biochemical; design: FRET-quenched peptide (Pro3) cleavage by PLpro, 10 min pre-incubation, slope over 20 min, normalised to no-compound control; conditions: high concentration screen, read-out: % of control remaining

**Q.** Which results are given for `Nc1[nH]nc2nc3ccccc3nc12` [Cdk1/5 Inhibitor]?
**A.** remaining activity at 1.25 µM ([1]; Well no.=2370): 96.8%; remaining activity at 3.75 µM ([2]; Well no.=2370): 98.7%

**Q.** For `CCCCCCCCCCCCC/C=C/[C@@H](O)[C@@H](N)CO` [Sphingosine], which remaining activity at 1.25 µM ([1]; Well no.=4361) is on record?
**A.** 101%

**Q.** And the remaining activity at 3.75 µM ([2]; Well no.=1172)?
**A.** 104%

**Q.** What about the remaining activity at 3.75 µM ([2]; Well no.=4361) of the same molecule?
**A.** 93.6%

**Q.** For `Cn1cnc2c(ncn2[C@@H]2O[C@H](CO)[C@@H](O)[C@H]2O)c1=O` [1-Methylinosine], which remaining activity at 1.25 µM ([1]; Well no.=7167) is on record?
**A.** 103%

**Q.** And the remaining activity at 1.25 µM ([1]; Well no.=7858)?
**A.** 102%

**Q.** And the remaining activity at 3.75 µM ([2]; Well no.=7167)?
**A.** 101%

**Q.** `CCCCCCCCCCCC(=O)O` [Lauric acid] was tested. Which remaining activity at 1.25 µM ([1]; Well no.=7169) did it give?
**A.** 96.8%

**Q.** What about the remaining activity at 3.75 µM ([2]; Well no.=7169) of the same molecule?
**A.** 98.4%

**Q.** With `CCOc1ccc(NC(C)=O)cc1` [Phenacetin] as the molecule, how does the remaining activity at 1.25 µM ([1]; Well no.=4948) read?
**A.** 98.7%

**Q.** What about the remaining activity at 3.75 µM ([2]; Well no.=4948) of the same molecule?
**A.** 93.7%

**Q.** Which results are given for `C[n+]1cccc(C(=O)O)c1`?
**A.** remaining activity at 1.25 µM ([1]; Well no.=3390): 94.5%; remaining activity at 3.75 µM ([2]; Well no.=3390): 99.5%

**Q.** For `C[C@H]1CCCC(=O)CCC/C=C/c2cc(O)cc(O)c2C(=O)O1` [Zearalenone], which remaining activity at 1.25 µM ([1]; Well no.=3148) is on record?
**A.** 97.2%

**Q.** And the remaining activity at 3.75 µM ([2]; Well no.=3148)?
**A.** 97.8%

**Q.** What does the source list for `CN(Cc1ccc(C(C)(C)C)cc1)Cc1cccc2ccccc12` [Butenafine HCl]?
**A.** remaining activity at 1.25 µM ([1]; Well no.=5371): 98.1%; remaining activity at 3.75 µM ([2]; Well no.=5371): 97.8%

**Q.** Which results are given for `Nc1nnc(-c2cccc(Cl)c2Cl)c(N)n1` [Lamotrigine]?
**A.** remaining activity at 1.25 µM ([1]; Well no.=977): 99.1%; remaining activity at 1.25 µM ([1]; Well no.=1832): 95.1%; remaining activity at 3.75 µM ([2]; Well no.=977): 101%; remaining activity at 3.75 µM ([2]; Well no.=1832): 92.9%

**Q.** How did the remaining activity at 1.25 µM ([1]; Well no.=6052) turn out when `COc1ccc(S(=O)(=O)N2CCC[C@H]2C(=O)Nc2cc(C)cc(C)c2)cc1` [ACT-462206] was run?
**A.** 95.5%

**Q.** And the remaining activity at 3.75 µM ([2]; Well no.=6052)?
**A.** 90.9%

**Q.** Which remaining activity at 1.25 µM ([1]; Well no.=5213) does the source give for `CC(C)c1nc(CN(C)C(=O)N[C@@H](CCN2CCOCC2)C(=O)N[C@H](CC[C@H](Cc2ccccc2)NC(=O)OCc2cncs2)Cc2ccccc2)cs1` [Cobicistat (GS-9350)] here?
**A.** 102%

**Q.** What about the remaining activity at 3.75 µM ([2]; Well no.=5213) of the same molecule?
**A.** 102%

**Q.** Which remaining activity at 1.25 µM ([1]; Well no.=1048) does the source give for `Cc1nc(N=Nc2cc(S(=O)(=O)O)c3cc([N+](=O)[O-])cc(S(=O)(=O)O)c3c2)c(COP(=O)(O)O)c(C=O)c1O` [PPNDS tetrasodium] here?
**A.** 102%

**Q.** And the remaining activity at 3.75 µM ([2]; Well no.=1048)?
**A.** 103%

**Q.** With `CCCCCCCC/C=C\CCCCCCCCOC[C@H](COP(=O)([O-])OCC[N+](C)(C)C)OC(C)=O` [PAF C18:1] as the molecule, how does the remaining activity at 1.25 µM ([1]; Well no.=4453) read?
**A.** 99.9%

**Q.** What about the remaining activity at 3.75 µM ([2]; Well no.=4453) of the same molecule?
**A.** 99.9%

**Q.** For `NC(CP(=O)(O)O)C(=O)O` (racemic), which remaining activity at 1.25 µM ([1]; Well no.=303) is on record?
**A.** 99.2%

**Q.** And the remaining activity at 3.75 µM ([2]; Well no.=303)?
**A.** 100%

**Q.** For `NC[C@@H]1O[C@H](C23CC4CC(CC(C4)C2)C3)Cc2c1ccc(O)c2O` [A-77636 hydrochloride], which remaining activity at 1.25 µM ([1]; Well no.=212) is on record?
**A.** 102%

**Q.** What about the remaining activity at 3.75 µM ([2]; Well no.=212) of the same molecule?
**A.** 99.3%

**Q.** `O=C(O)CCCCC1CCSS1` (racemic) was tested. Which remaining activity at 1.25 µM ([1]; Well no.=1195) did it give?
**A.** 102%

**Q.** And the remaining activity at 3.75 µM ([2]; Well no.=1195)?
**A.** 101%

**Q.** For `CC[C@@H](C)Nc1cc(C(=O)N[C@H]2C[C@H]3CC[C@@H](C2)N3c2ccc(C(=O)C3CC3)cn2)c(C)cc1C(N)=O` [XL888], which remaining activity at 1.25 µM ([1]; Well no.=8982) is on record?
**A.** 90.5%

**Q.** What about the remaining activity at 3.75 µM ([2]; Well no.=8982) of the same molecule?
**A.** 93.8%

**Q.** For `O=C(CCCCCCNC(=O)c1cnc(N(c2ccccc2)c2ccccc2)nc1)NO` [Rocilinostat (ACY-1215)], which remaining activity at 1.25 µM ([1]; Well no.=4786) is on record?
**A.** 101%

**Q.** And the remaining activity at 3.75 µM ([2]; Well no.=4786)?
**A.** 102%

**Q.** What does the source list for `COc1ccc(CCN2CCN(CCCc3ccccc3)CC2)cc1OC` [SA4503 (dihydrochloride)]?
**A.** remaining activity at 1.25 µM ([1]; Well no.=6991): 101%; remaining activity at 3.75 µM ([2]; Well no.=6991): 102%

**Q.** What does the source list for `C[C@@H]1CN([C@H]2CC[C@](C#N)(c3ccc(F)cc3)CC2)CC[C@]1(C(=O)O)c1ccccc1` [Levocabastine.HCl]?
**A.** remaining activity at 1.25 µM ([1]; Well no.=2058): 97.6%; remaining activity at 3.75 µM ([2]; Well no.=2058): 99.2%

**Q.** What does the source list for `CO[C@@H](C(=O)N1Cc2[nH]nc(NC(=O)c3ccc(N4CCN(C)CC4)cc3)c2C1)c1ccccc1` [Danusertib (PHA-739358)]?
**A.** remaining activity at 1.25 µM ([1]; Well no.=5045): 103%; remaining activity at 3.75 µM ([2]; Well no.=5045): 106%

**Q.** Which remaining activity at 1.25 µM ([1]; Well no.=5889) does the source give for `NC(=O)c1cccc(-c2cccc(OC(=O)NC3CCCCC3)c2)c1` [URB597] here?
**A.** 109%

**Q.** And the remaining activity at 1.25 µM ([1]; Well no.=8102)?
**A.** 95.4%

**Q.** And the remaining activity at 3.75 µM ([2]; Well no.=5889)?
**A.** 109%

**Q.** And the remaining activity at 3.75 µM ([2]; Well no.=8102)?
**A.** 94.7%

**Q.** Which results are given for `Clc1cccc(CN=C2Nc3ccccc3NC23CCNCC3)c1` [Liproxstatin-1]?
**A.** remaining activity at 1.25 µM ([1]; Well no.=5945): 98.7%; remaining activity at 1.25 µM ([1]; Well no.=6402): 94.5%; remaining activity at 3.75 µM ([2]; Well no.=5945): 97.6%; remaining activity at 3.75 µM ([2]; Well no.=6402): 93.9%

**Q.** Which results are given for `CC(=O)N[C@@H](C)C(=O)O` [Ac-Ala-OH]?
**A.** remaining activity at 1.25 µM ([1]; Well no.=8696): 96.5%; remaining activity at 3.75 µM ([2]; Well no.=8696): 96.8%

**Q.** `CC1=C(C(=O)OC(C)C)C(c2cccc([N+](=O)[O-])c2)C(C(=O)OC2CN(C(c3ccccc3)c3ccccc3)C2)=C(N)N1` (stereo not shown) [Azelnidipine] was tested. Which remaining activity at 1.25 µM ([1]; Well no.=5275) did it give?
**A.** 97.2%

**Q.** What about the remaining activity at 3.75 µM ([2]; Well no.=5275) of the same molecule?
**A.** 93.3%

**Q.** `CC(=O)c1ccc(N2CCOCC2)cc1O` [DNA-PK Inhibitor III] was tested. Which remaining activity at 1.25 µM ([1]; Well no.=2365) did it give?
**A.** 104%

**Q.** What about the remaining activity at 3.75 µM ([2]; Well no.=2365) of the same molecule?
**A.** 105%

**Q.** With `CNCC(=O)c1ccc(O)c(O)c1` [Adrenalone (hydrochloride)] as the molecule, how does the remaining activity at 1.25 µM ([1]; Well no.=7433) read?
**A.** 103%

**Q.** What about the remaining activity at 3.75 µM ([2]; Well no.=7433) of the same molecule?
**A.** 103%

**Q.** Which results are given for `Nc1ccc(S(N)(=O)=O)cc1` [Sulfanilamide]?
**A.** remaining activity at 1.25 µM ([1]; Well no.=4620): 106%; remaining activity at 1.25 µM ([1]; Well no.=7540): 94.6%; remaining activity at 3.75 µM ([2]; Well no.=4620): 108%; remaining activity at 3.75 µM ([2]; Well no.=7540): 93.1%

**Q.** What does the source list for `CC1(C)CC(=O)c2c(C(F)(F)F)nn(-c3ccc(C(N)=O)c(N[C@H]4CC[C@H](OC(=O)CN)CC4)c3)c2C1` [PF-04929113 (SNX-5422)]?
**A.** remaining activity at 1.25 µM ([1]; Well no.=4637): 101%; remaining activity at 3.75 µM ([2]; Well no.=4637): 105%

**Q.** Which results are given for `O=C(O)[C@@H]1CCN1` [L-azetidine-2-carboxylic acid]?
**A.** remaining activity at 1.25 µM ([1]; Well no.=103): 105%; remaining activity at 3.75 µM ([2]; Well no.=103): 104%

**Q.** Which remaining activity at 1.25 µM ([1]; Well no.=5680) does the source give for `O=c1c(O)c(-c2ccc(O)cc2O)oc2cc(O)cc(O)c12` [Morin hydrate] here?
**A.** 99.9%

**Q.** What about the remaining activity at 3.75 µM ([2]; Well no.=5680) of the same molecule?
**A.** 99.5%

**Q.** How did the remaining activity at 1.25 µM ([1]; Well no.=6475) turn out when `CCCCC[C@H](O)/C=C/[C@@H]1[C@@H](C/C=C\CCCC(=O)O)[C@@H](O)C[C@H]1O` [Dinoprost (tromethamine salt)] was run?
**A.** 104%

**Q.** What about the remaining activity at 3.75 µM ([2]; Well no.=6475) of the same molecule?
**A.** 105%

**Q.** `CCCC(=O)OC(CNC(C)(C)C)COc1nsnc1N1CCOCC1` (racemic) [(RS)-Butyryltimolol] was tested. Which remaining activity at 1.25 µM ([1]; Well no.=7133) did it give?
**A.** 102%

**Q.** What about the remaining activity at 3.75 µM ([2]; Well no.=7133) of the same molecule?
**A.** 96.2%
